In one series the target is NDM-1 (Klebsiella pneumoniae, UniProt C7C422). As to the kind of experiment: Inhibition of NDM-1-catalyzed imipenem hydrolysis. In kind it is biochemical. The note with it: relative to L-CS319.
Another series relates to HEK 293 cells. As to the kind of experiment: Cytotoxicity assay. In kind it is cell-based, human. The settings on record: up to 500 μM; 24 h incubation.
The subject of another series is HeLa cells. In words: Cytotoxicity assay. In kind it is cell-based, human. The note with it: up to 500 μM; 24 h incubation.

Sequence of NDM-1 (C7C422 39-270 limits assumed): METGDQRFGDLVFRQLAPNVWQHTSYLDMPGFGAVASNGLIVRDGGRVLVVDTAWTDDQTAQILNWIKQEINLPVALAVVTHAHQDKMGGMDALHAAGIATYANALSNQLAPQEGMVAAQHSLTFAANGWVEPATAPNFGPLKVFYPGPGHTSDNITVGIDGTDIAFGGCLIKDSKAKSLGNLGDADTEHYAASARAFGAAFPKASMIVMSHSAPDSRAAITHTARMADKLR

In the case of `CC1(C)S[C@@H]2CS[C@@H](CS)N2[C@H]1C(=O)O` [D-VC26, (2S,5R,8S)-2-Mercaptomethyl-7-dimethyl-8-carboxylate-1-aza-3,6-dithiobicyclo[3.3.0]octane], the “times less active than L-CS319 (in vitro NDM-1 inhibition)” value at NDM-1 was about 2 times.

Consider `O=C(O)[C@@H]1CS[C@H]2CS[C@H](CS)N21` [L-CS319, (2R,5S,8R)-8-Carboxylate-2-mercaptomethyl-1-aza-3,6-dithiobicyclo[3.3.0]octane], for which the “toxic effects against Hek 293 cells” value in the series on HEK 293 cells is “did not show toxic effects”. Moreover, the “toxic effects against HeLa cells” value in the series on HeLa cells is listed as “did not show toxic effects”.

The values are drawn from paper PMC5064445 (ACS infectious diseases, 2015).
